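Assay format: 96-well plates, 48-hour exposure. Abbreviation: GI50, concentration required for 50% inhibition of growth.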 Calls of active or inactive are those of the source. Cut-off read from the data, not from the text of the source: active = GI50 up to about 1.1 µM and inactive = higher.

The values that follow come from ChEMBL document CHEMBL1201862, “PubChem BioAssay data set” (2004).

Test systems include SW-620; UACC-257; SK-MEL-28; KM12; SK-MEL-2; A498; MOLT-4; HCT-15; NCI-H522; HT-29; KM-20L2; HCT-116; HOP-62; RPMI-8226; U-251; A549; LOX IMVI; 786-0; IGROV-1; MDA-MB-435.
Assay in all cases: NCI-60 cell line screen, 48 h

On to `COc1cc2c(c(OC)c1OC)[C@@H]1CCCCC[C@@H]1CCC2=O`, for which the GI50 was > 100 µM (inactive) with SW-620; 59.7 µM (inactive) with UACC-257; > 100 µM (inactive) in the assay with SK-MEL-28; 99.1 µM (inactive) with KM12; > 92.9 µM (inactive) with SK-MEL-2; > 100 µM (inactive) with A498. Besides, the GI50 in the assay with MOLT-4 is 24 µM (inactive); in the assay with HCT-15, over 75 µM; in the assay with NCI-H522, > 66.7 µM (inactive); with HT-29 it was > 71.6 µM (inactive); in the assay with KM-20L2, > 90.8 µM (inactive); in the assay on HCT-116 it was 57.1 µM (inactive). Also, the GI50 in the assay with HOP-62 was > 100 µM (inactive); in the assay on RPMI-8226 it was 31.9 µM (inactive); in the assay with U-251 it was > 92.5 µM (inactive); in the assay on A549, > 100 µM (inactive); in the assay with LOX IMVI, 17.7 µM (inactive); in the assay on 786-0, > 71.3 µM (inactive). Further, in the assay on IGROV-1, the GI50 was > 100 µM (inactive).
As for `N#C/C(=C\c1c(Cl)cccc1Cl)c1ccccc1`, the GI50 is 2.74 µM (inactive) with SW-620; 8.65 µM (inactive) with UACC-257; 6.92 µM (inactive) in the assay on SK-MEL-28; 4.86 µM (inactive) in the assay on KM12; 5.78 µM (inactive) with SK-MEL-2; 3.13 µM (inactive) in the assay with A498. Also, the GI50 in the assay on MOLT-4 is 4.73 µM (inactive); in the assay on HCT-15, 4.16 µM; in the assay on NCI-H522, 14.2 µM (inactive); in the assay with HT-29, 4.19 µM (inactive); with KM-20L2 it was 3.85 µM (inactive); in the assay with HCT-116, 4.36 µM (inactive). Moreover, the GI50 with HOP-62 is 3.83 µM (inactive); with RPMI-8226, 5.48 µM (inactive); in the assay with U-251, 4.39 µM (inactive); in the assay on A549 it was 7.8 µM (inactive); in the assay on LOX IMVI it was 18.7 µM (inactive); in the assay on 786-0 it was 4.92 µM (inactive). Moreover, the GI50 in the assay on IGROV-1 was 9.29 µM (inactive).
In the case of `NC1=NCN(C2OC(CO)C(O)C2O)C(=O)N1` (stereo not given), the GI50 in the assay with SW-620 is 16.7 µM (inactive); in the assay with UACC-257, 49 µM (inactive); with SK-MEL-28, 57.3 µM (inactive); in the assay with KM12, 14.1 µM (inactive); with SK-MEL-2 it was 0.977 µM (active); in the assay on A498, 6.85 µM (inactive). Besides, the GI50 in the assay with MOLT-4 is 5.21 µM (inactive); in the assay on HCT-15 it was 4.5 µM; in the assay with NCI-H522, 5.26 µM (inactive); in the assay on HT-29, 42.3 µM (inactive); with MDA-MB-435, 6.64 µM (inactive); with KM-20L2 it was 14.5 µM (inactive). The GI50 was 16.6 µM (inactive) with HCT-116; 152 µM (inactive) in the assay on HOP-62; 1.8 µM (inactive) in the assay with RPMI-8226; 27.9 µM (inactive) in the assay with U-251; 18.5 µM (inactive) in the assay on A549; 2.23 µM (inactive) in the assay on LOX IMVI. Besides, the results for the GI50 in the assay on 786-0 and with IGROV-1 were 4.52 µM (inactive) and 5.74 µM (inactive), respectively.
With `CC(=O)c1ccccc1NC(=O)C(=O)C(C(=O)c1ccc2ccccc2c1)C1OC(=O)c2ccccc21` (stereo not given), the GI50 in the assay with SW-620 was 7.83 µM (inactive); with UACC-257 it was 13.8 µM (inactive); in the assay on SK-MEL-28 it was 11.3 µM (inactive); in the assay with KM12, 18.3 µM (inactive); in the assay on SK-MEL-2 it was 10.2 µM (inactive); with A498, 15.2 µM (inactive). Further, the GI50 in the assay with MOLT-4 was 3.67 µM (inactive); with HCT-15, 13.7 µM; in the assay with NCI-H522, 10.7 µM (inactive); in the assay on HT-29 it was 34.8 µM (inactive); in the assay on KM-20L2, 32.2 µM (inactive); in the assay on HCT-116 it was 13.1 µM (inactive). Besides, the GI50 in the assay with HOP-62 is 10.7 µM (inactive); in the assay on RPMI-8226, 6.11 µM (inactive); with U-251, 6.75 µM (inactive); in the assay on A549, 19.3 µM (inactive); in the assay on LOX IMVI, 7.71 µM (inactive); in the assay on 786-0 it was 6.61 µM (inactive). Also, in the assay on IGROV-1, the GI50 is 16.1 µM (inactive).
For `O=C1C=CC(=O)C2=C1[C@@H](O)C1CC=CC3C(=O)O[C@@H]2C31` (stereo not given in full), the GI50 in the assay on SW-620 is 22.4 µM (inactive); in the assay with UACC-257, 21.8 µM (inactive); in the assay on SK-MEL-28, > 45.8 µM (inactive); in the assay on KM12, 19.8 µM (inactive); in the assay on SK-MEL-2 it was 18.2 µM (inactive); in the assay on A498, > 100 µM (inactive). In addition, the GI50 is 20 µM (inactive) in the assay with MOLT-4; 19.2 µM in the assay on HCT-15; 15.5 µM (inactive) in the assay with NCI-H522; 24.3 µM (inactive) in the assay with HT-29; 23.5 µM (inactive) with KM-20L2; 19.8 µM (inactive) in the assay on HCT-116. Further, the GI50 is > 100 µM (inactive) in the assay with HOP-62; 19.9 µM (inactive) with RPMI-8226; > 77.8 µM (inactive) in the assay on U-251; > 52.7 µM (inactive) in the assay on A549; 20.6 µM (inactive) in the assay with LOX IMVI; 26.2 µM (inactive) in the assay with 786-0. Further, the GI50 in the assay on IGROV-1 was 14.8 µM (inactive).
Turning to `CC(=O)OC1CCC2OOC1O2` (stereo not given), the GI50 in the assay with SW-620, in the assay on UACC-257, in the assay on SK-MEL-28, with KM12, in the assay with SK-MEL-2 and with A498 was > 100 µM (inactive) each time. The GI50 with MOLT-4 was > 100 µM (inactive); with HCT-15 it was over 100 µM; in the assay with NCI-H522, > 100 µM (inactive); in the assay with HT-29, > 100 µM (inactive); in the assay on KM-20L2, > 100 µM (inactive); in the assay on HCT-116 it was > 100 µM (inactive). Also, the GI50 in the assay with HOP-62, in the assay with RPMI-8226, with U-251, in the assay on A549, with LOX IMVI and with 786-0 was > 100 µM (inactive) in each case. In addition, the GI50 with IGROV-1 is > 100 µM (inactive).
For the compound `Nc1cc2[nH]cnc2c(=O)[nH]1` [DEZAGUANINE], the GI50 is 17.7 µM (inactive) in the assay on SW-620; 109 µM (inactive) with UACC-257; 40.6 µM (inactive) in the assay with SK-MEL-28; 51.6 µM (inactive) in the assay with KM12; 5.96 µM (inactive) in the assay with SK-MEL-2; 63.5 µM (inactive) with A498. Moreover, the GI50 in the assay on MOLT-4 is 6.28 µM (inactive); in the assay with HCT-15, 19.3 µM; in the assay on NCI-H522 it was 14.8 µM (inactive); in the assay with HT-29, 21.5 µM (inactive); in the assay on MDA-MB-435 it was 14.3 µM (inactive); in the assay with KM-20L2 it was 33.7 µM (inactive). Also, the GI50 with HCT-116 is 16.6 µM (inactive); with HOP-62, 18.3 µM (inactive); in the assay on RPMI-8226 it was 19.3 µM (inactive); in the assay with U-251, 30.5 µM (inactive); in the assay on A549, 24.5 µM (inactive); with LOX IMVI, 10.5 µM (inactive). Further, the GI50 in the assay on 786-0 is 19.4 µM (inactive); in the assay on IGROV-1 it was 23.1 µM (inactive).
